{"source": "paper PMC6389703", "about": "“Identification of Biologically Active Ganoderma lucidum Compounds and Synthesis of Improved Derivatives That Confer Anti-cancer Activities in vitro” (Frontiers in Pharmacology, 2019)", "key": {"Sup-B15 cells": {"system": "Sup-B15 cells", "assay": "Cell Titer Glo viability assay, Sup-B15", "type": "cell-based", "conditions": "Homo sapiens, 72-h treatment", "procedure": "(§1) Either 1 × 10^3–4.8 × 10^3 or 4 × 10^2–1.2 × 10^3 cells were seeded to each well of 96- or 384-well white polystyrene flat-bottomed plates (3610 or 8804BC, Corning) in 100 μL or 30 μL media per well, respectively. The concentrations used were experimentally determined to ensure logarithmic growth during the duration of the experiment and prevent adverse effects on cell growth by DMSO exposure. The plates were incubated at 37°C in 5% CO2 for 24 h before treatment. Stock solutions of test compounds (10 mM in DMSO) in nine 3-fold serial dilutions were dispensed via pintool (Biomek). The final concentration of DMSO was 0.3% (v/v) in each well. […] Luminescence was recorded in an Envision plate reader (PerkinElmer).\n(§2) For the CTG assay, 3 or 4 replicate assays were conducted for each experimental condition, and a minimum of 3 independent experiments were conducted for cellular assays. The mean luminescence of each experimental treatment group was normalized as a percentage of the mean intensity of untreated controls. EC50 values (μM) were calculated by Pipeline Pilot Software (Accelrys, Enterprise Platform, San Diego, CA, United States). EC50 values (μM) from the viability assay were calculated from dose response curve-fitting via non-linear regression by using GraphPad Prism (Version 7.0, San Diego, CA, United States). […]"}, "SUM-190 cells": {"system": "SUM-190 cells", "assay": "Cell viability assay, SUM-190", "type": "cell-based", "conditions": "Homo sapiens, SUM190; Figure 4E", "procedure": "as §1, with “(PerkinElmer). […]” for “(PerkinElmer).”\nas §2"}, "SUM-149 cells [1]": {"system": "SUM-149 cells", "assay": "Colony formation assay", "type": "cell-based, human", "conditions": "72 h treatment, 5–40 μM, 10 days culture", "procedure": "SUM-149 cells (1.5 × 10^6 cells/well) were plated on a 6-well plate. Two days later, cell media was changed to 5% FBS, and cells were incubated at 37°C in a 5% CO2 atmosphere for 1 h before vehicle (0.1% DMSO) or EP (5–40 μM) was added. After 72 h of treatment, cells were trypsinized and reseeded at 200 cells/mL per well in 24-well plates. After 10 days of culture, colonies were visualized by crystal violet staining, and the colony numbers were counted under a microscope."}, "MDA-MB-231 cells": {"system": "MDA-MB-231 cells", "assay": "De novo in-cell protein synthesis (click assay)", "type": "cell-based, human", "conditions": "2 h; EP 20 μM", "procedure": "First, 2.5 × 10^4 cells/well were seeded in 8-well μ-slides (Ibidi®, #80826) and incubated at 37°C for 12 h. The cells were treated with vehicle, compounds Ganoderic acid A or EP, or cycloheximide (positive control) for 2 h to determine protein synthesis as nascent proteins generated using Biovision’s EZClick^TM Global Protein Synthesis Assay Kit, (#K715-100, Milpitas, CA, United States). The assay includes a robust chemical method based on an alkyne containing o-propargyl-puromycin (OP-puro) probe, which stops translation by forming covalent conjugates with nascent polypeptide chains. Truncated polypeptides are rapidly turned over by the proteasome and can be detected based on the subsequent click reaction with a fluorescent azide. The reaction was conducted according to the manufacturer’s protocol. Cells were imaged at 20× with a Nikon C2 scanning confocal microscope, and the whole image montage was quantified by using Gen5 Software and Lionheart^TM FX Automated Microscope (BioTek, Winooski, VT, United States)."}, "Uocb-1 cells": {"system": "Uocb-1 cells", "assay": "Cell Titer Glo viability assay, Uocb-1", "type": "cell-based", "conditions": "Homo sapiens, UoC-B1, 72-h treatment", "procedure": "as §1, §2"}, "SUM-149 cells [2]": {"system": "SUM-149 cells", "assay": "Cell viability assay, SUM-149", "type": "cell-based, human", "conditions": "for EC50: Homo sapiens, read-out: EC50, SUM-149 cell viability", "procedure": "Either 1 × 10^3–4.8 × 10^3 or 4 × 10^2–1.2 × 10^3 cells were seeded to each well of 96- or 384-well white polystyrene flat-bottomed plates (3610 or 8804BC, Corning) in 100 μL or 30 μL media per well, respectively. The concentrations used were experimentally determined to ensure logarithmic growth during the duration of the experiment and prevent adverse effects on cell growth by DMSO exposure. The plates were incubated at 37°C in 5% CO2 for 24 h before treatment. Stock solutions of test compounds (10 mM in DMSO) in nine 3-fold serial dilutions were dispensed via pintool (Biomek). The final concentration of DMSO was 0.3% (v/v) in each well. The plates were incubated for 72 h at 37°C in 5% CO2 and then quenched with CellTiter-Glo® reagent (50 μL/well in 96-well plate, 30 μL/well in 384-well plate) at RT. The positive controls included staurosporine (10 μM), gambogic acid (10 μM), and a toxic quinoline generated in-house. Plates were then incubated at RT for 20 min and centrifuged at 1000 rpm for 1 min. The cytotoxicity assay was performed by using the CellTiter-Glo® Luminescent Cell Viability Assay kit (G7570, Promega, Madison, WI, United States) according to the manufacturer’s instructions. Luminescence was recorded in an Envision plate reader (PerkinElmer).\nCell viability assays (MTT or PI staining assays) in SUM-149, SUM-190, MDA-MB-231, and MCF10A cells were performed as we previously described ([Suarez-Arroyo et al., 2016]).\nFor the CTG assay, 3 or 4 replicate assays were conducted for each experimental condition, and a minimum of 3 independent experiments were conducted for cellular assays. The mean luminescence of each experimental treatment group was normalized as a percentage of the mean intensity of untreated controls. EC50 values (μM) were calculated by Pipeline Pilot Software (Accelrys, Enterprise Platform, San Diego, CA, United States). EC50 values (μM) from the viability assay were calculated from dose response curve-fitting via non-linear regression by using GraphPad Prism (Version 7.0, San Diego, CA, United States). For cell viability, colony formation, cell-cycle progression, cell death, and western blot assays, the analyses were performed via one-way or two-way ANOVA with post-testing for each condition (concentration, cell cycle stage, apoptotic event, cell line) by using GraphPad Prism."}, "SUM-149 cells [3]": {"system": "SUM-149 cells", "assay": "ROS measurement (CellROX green), SUM-149", "type": "cell-based, human", "conditions": "EP 20 μM", "procedure": "SUM-149 or MDA-MB-231 were plated in 96-well plates at a density of 2 × 10^4 and 1 × 10^4 cells/well, respectively, in black 96-well clear bottom tissue culture plates and incubated for 24 h at 37°C. The mRuby-Mito-7 plasmid was obtained from Addgene (#55874 from Michael Davidson). A stable clone of MCF-7 was generated by using Fugene 6 (Roche) to transfect cells (2 × 10^5) with plasmid (2.0 μg) under neomycin selection. A stable cell line was selected by using G418 (300 μg/mL) for 2 weeks, sorted by flow cytometry, and maintained under G418 thereafter. Transfected MCF-7 cells were plated at a density of 2 × 10^4 cells/well in black 96-well clear bottom tissue culture plates and incubated overnight at 37°C. To test for ROS formation and remove background, cells were replenished with fresh PBS with 2% FBS and treated with the desired compounds for 1 h at 37°C. DMSO (0.5%) was used as a negative control, while Menadione (Mena, at 10 μM) or t-Butyl hydroperoxide (TBHP) at 100 μM final concentration were used as a positive control. To evaluate the compounds’ effects on ROS formation inhibition, the free radical scavenger N-acetyl cysteine (NAC) was used. Cells were treated with or without NAC (500 μM or 100 μM) for 1 h, then CellROX® green reagent (Molecular Probes #C10444) was added to a final concentration of 5 μM, and cells were incubated for an additional 30 min at 37°C. Cells were then washed 2× with PBS, followed by fixation with 4% paraformaldehyde (v/v) for 15 min, and 2 more washes with PBS. Fluorescence intensity was measured in a Clariostar® plate reader (BMG LABTECH, Cary, NC, United States) at 535 nm."}, "[4]": {"assay": "Incubation of EP with NAC, monitored by NMR and LC-MS", "type": "physicochemical", "conditions": "NAC in DMSO, 24 h at 37°C"}}, "note": "Read-outs that look alike come from different tables or passages of the source."}
{"smiles": "CC(C)[C@@H](C)/C=C/[C@@H](C)[C@H]1CC[C@@H]2[C@]1(C)CC[C@H]1[C@]23C=C[C@]2(C[C@@H](O)CC[C@]12C)OO3", "note": "[EP, ergosterol peroxide]", "values": [{"measurement": "EC50", "setting": "Sup-B15 cells", "value": 9.86, "unit": "µM"}, {"measurement": "EC50", "setting": "SUM-190 cells", "value": 43, "unit": "µM"}, {"measurement": "number and size of colonies formed", "setting": "SUM-149 cells [1]", "value": "concentration-dependent decrease"}, {"measurement": "de novo protein synthesis inhibition", "setting": "MDA-MB-231 cells", "value": "do not inhibit"}, {"measurement": "EC50", "setting": "Uocb-1 cells", "value": 13.6, "unit": "µM"}, {"measurement": "concentration at which SUM-149 cell viability is significantly reduced", "setting": "SUM-149 cells [2]; 72 h", "value": 8, "unit": "µM"}, {"measurement": "EC50", "setting": "SUM-149 cells [2]; SUM149, 24 h", "value": 34, "unit": "µM"}, {"measurement": "EC50", "setting": "SUM-149 cells [2]; SUM149, 72 h", "value": 20, "unit": "µM"}, {"measurement": "ROS formation (fold)", "setting": "SUM-149 cells [3]; 1 h", "value": "fourfold"}, {"measurement": "reduction in ROS formation in the presence of NAC", "setting": "SUM-149 cells [3]; NAC 500 μM, menadione 10 μM", "value": "about 20%"}, {"measurement": "reaction of the endoperoxide motif with NAC", "setting": "[4]", "value": "no observable olefin migration or opening of the endoperoxide was detected"}]}
